US12173088B2, “Anti-microbial peptides” (priority 2018, dated 2024)
Values after ≈ are worked out from the molar mass of the structure shown. Like-named read-outs stand apart in the source and are kept apart here. Square brackets hold non-standard residues; d marks the D form. Peptide text beside a SMILES is read from it.

Experiments:
E. coli ATCC 25922 = type: cell-based, Escherichia coli; details: ATCC 25922
How it was run: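 Broth microdilution: log-phase E. coli diluted to OD600 0.001 and exposed to two-fold serial peptide dilutions overnight at 37 °C. Growth read at 630 nm.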

[1] = test system: human red blood cells (hRBCs); test: Hemolytic assay; type: cell-based
How it was run: (§1)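 Washed hRBCs (2% v/v) exposed to peptide for 1 h at 37 °C, then centrifuged and hemoglobin in supernatant read at 545 nm. Lysis normalized to Triton X-100 (2% or 1%; 100%) and PBS (0%); HL50 is the peptide concentration giving 50% lysis, and CSI is HL50/MIC.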

Hemolytic assay = type: cell-based, human; details: human, human red blood cells, 2% (v/v)
How it was run: as §1

S. aureus M838-17 (MRSA) = test: microbe, parasite or virus in culture; type: cell-based, Staphylococcus aureus; details: read-out: MIC S. aureus M838-17 (MRSA)
How it was run: (§2)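 Broth microdilution: log-phase cultures in tryptic soy broth diluted to OD600 0.001, exposed to two-fold diluted peptides at 37° C overnight, growth read at 630 nm. Medium effects on S. aureus USA300 tested with up to 200 mM NaCl, 2 mM CaCl2, 5-10% human serum, mouse plasma, fluids or tissue homogenate supernatants.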

S. aureus USA300 [2] = test: microbe, parasite or virus in culture; type: cell-based, Staphylococcus aureus
How it was run: as §2

P. aeruginosa E411-17 = test: microbe, parasite or virus in culture; type: cell-based, Pseudomonas aeruginosa; details: read-out: MIC P. aeruginosa E411-17
From the text: (§3) The bacterial strains used include the Gram-positive strains Staphylococcus aureus USA300 LAC, S. epidermidis 1457, and Bacillus subtilis 168, as well as the Gram-negative isolates Escherichia coli K12 and Acinetobacter baumannii B2367-12. Additional, drug resistance strains include Gram-positive Enterococcus faecium V286-17 (VRE) and S. aureus M838-17 (MRSA) and Gram-negative E. coli E423-17, E. coli E416-17 (ampC), and P. aeruginosa E411-17. Bacteria were cultivated in tryptic soy broth (TSB) (BD Bioscience, MD).
(§4) The antibacterial activity of peptides was evaluated using a standard broth microdilution protocol with minor modifications as described (Mishra, et al. (2012) J. Am. Chem. Soc., 134:12426-12429). In brief, logarithmic phase bacterial cultures (i.e., optical density at 600 nm≈0.5) were diluted to OD600 0.001 and partitioned into a 96-well polystyrene microplate at 90 μL per well. After treatment with 10 μL of peptide solutions two fold diluted to various concentrations, microplates were incubated at 37° C. overnight and read on a ChroMate® 4300 Microplate Reader at 630 nm (GMI, Ramsey, MN). […] To study the influence of medium conditions on the antimicrobial activity of peptides against S. aureus USA300, up to 200 mM sodium chloride (NaCl), 2 mM of calcium chloride, 5-10% of human serum, mouse plasma, fluid, or supernatants of tissue homogenates were included into the assays.
(§5) The bacterial strains used include the Gram-positive bacteria methicillin-resistant Staphylococcus aureus USA300, Enterococcus faecium V286-17 (VRE), S. aureus M838-17 (MRSA) and Gram-negative bacteria E. coli E423-17, E416-7 (ampC), P. aeruginosa E411-17, PA01, K. pneumoniae E406-17, ATCC13883, and A. baumannii B26-16. Bacteria were cultivated in tryptic soy broth (TSB) from BD Bioscience.
(§6) The antibacterial activity of peptides was evaluated using a standard broth microdilution protocol with minor modifications (Mishra, et al. (2017) Acta Biomater., 49:316-328). In brief, logarithmic phase bacterial cultures (i.e., optical density at 600 nm≈0.5) were diluted to 0.001 OD and aliquoted 90 μL per well into a 96-well polystyrene microplate. Added 10 μL peptides per well with various concentrations, plates were incubated at 37° C., overnight. Post incubation the plates are read at 630 nm using a ChroMate® Microplate Reader (GMI). […] To study the influence of medium conditions on the antimicrobial activity of peptides against S. aureus USA300 at different pHs (6.8, 7.2, and 8.0), 150 mM sodium chloride (NaCl), 5-10% of human serum, mouse plasma, and peritoneal fluid were included into the assays.

E. coli ampC E416-7 = type: cell-based, Escherichia coli; details: Table 7
From the text: as §3, §4

E. faecium V286-17 (VRE) = test: microbe, parasite or virus in culture; type: cell-based, Enterococcus faecium; details: for MIC: read-out: MIC E. faecium V286-17 (VRE)
From the text: as §3, §4, §5, §6

E. coli E423-17 = test: microbe, parasite or virus in culture; type: cell-based, Escherichia coli; details: read-out: MIC E. coli E423-17
From the text: as §3, §4, §5, §6

K. pneumoniae E406-17 = test: microbe, parasite or virus in culture; type: cell-based, Klebsiella pneumoniae; details: read-out: MIC K. pneumoniae E406-17
Protocol: as §4, §5, §6

P. aeruginosa PAO1 = type: cell-based, Pseudomonas aeruginosa; details: PAO1
How it was run: (§7)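 Broth microdilution in tryptic soy broth: log-phase cultures (OD600 ≈0.5) diluted to OD600 0.001, given two-fold peptide dilutions, incubated overnight at 37° C. Growth read at 630 nm.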

S. aureus USA300 [3] = test: Propidium iodide membrane permeation; type: cell-based, Staphylococcus aureus
Protocol: The membrane permeation experiment was performed as described with minor modifications (Wang, et al. (2005) J. Biol. Chem., 280:5803-5811). Serially diluted 10× peptides (10 μL each well) were created in 96-well microtiter plates. Propidium iodide (2 μL) at a fixed concentration of 20 μM were added to each well followed by 88 μL of the S. aureus USA300 culture (a final OD600˜0.1 in TSB media). The plate was incubated at 37° C. with continuous shaking at 100 rpm in a FLUOstar® Omega (BMG LABTECH, Cary, NC) microplate reader. The fluorescence from the plate was read every 5 minutes for a total duration of 2 hours with an excitation and emission wavelengths of 584 nm and 620 nm, respectively. Plots were made using average values of duplicated experiments with MARS software.
The experiment was performed as described previously with minor modifications (Mishra, et al. (2017) Acta Biomater., 49:316-328). Serially diluted 10× peptides (10 μL each well) were created in 96-well microtiter plates. Propidium iodide (2 μL) at a fixed concentration of 20 μM were added to each well followed by 88 μL of the S. aureus USA300 culture (a final OD600˜0.1 in TSB media or PBS). The plate was incubated at 37° C. with continuous shaking at 100 rpm in a FLUOstar® Omega (BMG LABTECH) microplate reader. The samples fluorescence was read at every 5 minutes for 24 cycles with an excitation and emission wavelengths of 584 nm and 620 nm, respectively. Plots generated using average values from the experiments using GraphPad Prism.

A. baumannii B26-16 = test: microbe, parasite or virus in culture; type: cell-based, Acinetobacter baumannii; details: read-out: MIC A. baumannii B26-16
Protocol: as §5, §6

K. pneumoniae ATCC 13883 = type: cell-based, Klebsiella pneumoniae; details: ATCC 13883
How it was run: as §7

Row | SMILES | MIC EC (E. coli ATCC 25922) (E. coli ATCC 25922) [µM] | HC50 at 1 h (Hemolytic assay) [µM] | MIC (S. aureus M838-17 (MRSA); M838-17) [µM] | MIC (S. aureus USA300 [2]; 1 mM Ca2+) [µM] | MIC (S. aureus USA300 [2]; 2 mM Ca2+) [µM] | MIC (S. aureus USA300 [2]; 50 mM NaCl) [µM] | MIC (S. aureus USA300 [2]; 100 mM NaCl) [µM] | MIC (S. aureus USA300 [2]; No salts added, Table 6, by UV) [µM] | MIC (S. aureus USA300 [2]; USA300) [µM] | MIC SA (S. aureus USA300) (S. aureus USA300 [2]; USA300) [µM] | MIC (S. aureus USA300 [2]; USA300, pH 6.8) [µM] | MIC (S. aureus USA300 [2]; USA300, pH 7.4) [µM] | MIC (S. aureus USA300 [2]; USA300, pH 8) [µM] | MIC (P. aeruginosa E411-17; E411-17) [µM] | MIC E. coli ampC E416-7 (E. coli ampC E416-7) [µM] | MIC E. faecium V286-17 (VRE) (E. faecium V286-17 (VRE); V286-17 (VRE)) [µM] | MIC (E. coli E423-17; E423-17) [µM] | MIC (K. pneumoniae E406-17; E406-17) [µM] | MIC PA (P. aeruginosa PAO1) (P. aeruginosa PAO1) [µM] | Propidium iodide membrane permeation (S. aureus USA300 [3]) | other results
1 | CC(C)C[C@H](NC(=O)[C@H](CC(C)C)NC(=O)[C@H](CCCCN)NC(=O)[C@H](CC(C)C)NC(=O)CNC(=O)[C@H](CC(C)C)NC(=O)[C@H](CO)NC(=O)[C@H](CC(C)C)NC(=O)[C@H](CC(C)C)NC(=O)[C@H](CC(C)C)NC(=O)[C@H](CO)NC(=O)[C@H](CC(C)C)NC(=O)CN)C(N)=O [DFT503, GLSLLLSLGLKLL] (H-GLSLLLSLGLKLL-NH2; N-terminus and C-terminus assumed) | >25 | > 300 | 3.1 (≈ 4.15 µg/mL) | 1.56 (≈ 2.09 µg/mL) | 1.56 (≈ 2.09 µg/mL) | 1.56 to 3.1 | 1.56 to 3.1 | 1.56 | 3.1 (≈ 4.15 µg/mL) | 1.6 (≈ 2.14 µg/mL) | 3.1 (≈ 4.15 µg/mL) | 3.1 to 6.2 | 3.1 (≈ 4.15 µg/mL) | >50 | >50 | 3.1 to 6.25 | >50 | >50 | >25 |  | HL50, peptide concentration for 50% hemolysis [1]: >300 µM
2 | CC(C)C[C@@H](NC(=O)[C@@H](CC(C)C)NC(=O)[C@@H](CCCCN)NC(=O)[C@@H](CC(C)C)NC(=O)CNC(=O)[C@@H](CC(C)C)NC(=O)[C@@H](CO)NC(=O)[C@@H](CC(C)C)NC(=O)[C@@H](CC(C)C)NC(=O)[C@@H](CC(C)C)NC(=O)[C@@H](CO)NC(=O)[C@@H](CC(C)C)NC(=O)CN)C(N)=O [DFT503d, GLSLLLSLGLKLL] (H-G[dL][dS][dL][dL][dL][dS][dL]G[dL][dK][dL][dL]-NH2; N-terminus and C-terminus assumed) | >25 | > 300 | 3.1 (≈ 4.15 µg/mL) | 1.56 (≈ 2.09 µg/mL) | 1.56 (≈ 2.09 µg/mL) | 1.56 (≈ 2.09 µg/mL) | 1.56 (≈ 2.09 µg/mL) | 1.56 | 3.1 (≈ 4.15 µg/mL) | 1.6 (≈ 2.14 µg/mL) | 3.1 (≈ 4.15 µg/mL) | 3.1 (≈ 4.15 µg/mL) | 1.6 (≈ 2.14 µg/mL) | >50 | >50 | 3.1 to 6.25 | >50 | >50 | >25 |  | MIC (S. aureus USA300 [2]; 200 mM NaCl): 1.56 µM (≈ 2.09 µg/mL)
3 | CO[C@H]1/C=C/O[C@@]2(C)Oc3c(C)c(O)c4c(O)c(cc(O)c4c3C2=O)NC(=O)/C(C)=C\C=C\[C@H](C)[C@H](O)[C@@H](C)[C@@H](O)[C@@H](C)[C@H](OC(C)=O)[C@@H]1C [Rifamycin, reference compound] |  |  |  |  |  |  |  |  |  |  |  |  |  |  |  |  |  |  |  | failed to permeate | MIC (S. aureus M838-17 (MRSA); Staphylococcus aureus, MRSA, Table 7, by weight): 1.56 µM (≈ 1.09 µg/mL); MIC (S. aureus USA300 [2]; Staphylococcus aureus, MRSA / USA300, Table 14, read-out: MIC S. aureus USA300 (MRSA)): 0.25 µM (≈ 0.174 µg/mL); MIC (P. aeruginosa E411-17; Pseudomonas aeruginosa, E41117, Table 14): > 8 µM; MIC (E. faecium V286-17 (VRE); Enterococcus faecium, VRE, Table 7): 12.5 µM (≈ 8.72 µg/mL); MIC (E. faecium V286-17 (VRE); Enterococcus faecium, VRE, Table 14): > 8 µM; MIC (E. coli E423-17; Escherichia coli, E42317, Table 14): > 8 µM; MIC (K. pneumoniae E406-17; Klebsiella pneumoniae, E40617, Table 14): > 8 µM; MIC (A. baumannii B26-16; Acinetobacter baumannii, B2616, Table 14): > 8 µM
4 | CC[C@H](C)[C@H](NC(=O)[C@H](CCCCN)NC(=O)[C@H](CCCNC(=N)N)NC(=O)[C@H](CC(C)C)NC(=O)[C@H](Cc1c[nH]c2ccccc12)NC(=O)[C@H](Cc1c[nH]c2ccccc12)NC(=O)[C@@H](N)Cc1c[nH]c2ccccc12)C(=O)N[C@@H](Cc1c[nH]c2ccccc12)C(N)=O [WW291, WWWLRKIW] (H-WWWLRKIW-NH2; N-terminus and C-terminus assumed) |  |  |  |  |  |  |  |  |  |  |  |  |  | >32 |  |  | 8 (≈ 10.2 µg/mL) | ≥32 |  | permeate bacterial membranes | MIC E. coli ATCC 25922 (E. coli ATCC 25922): 6.2 to 12.5 µM; MIC K. pneumoniae ATCC 13883 (K. pneumoniae ATCC 13883): 12.5 µM (≈ 15.9 µg/mL); MIC S. aureus USA 300 (S. aureus USA300 [2]; USA300): 3.1 µM (≈ 3.94 µg/mL); MIC (S. aureus USA300 [2]; USA300, read-out: MIC S. aureus USA300 (MRSA)): 4 µM (≈ 5.09 µg/mL); MIC (E. faecium V286-17 (VRE); V286-17 (VRE)): 4 µM (≈ 5.09 µg/mL); MIC (A. baumannii B26-16; B26-16): 16 µM (≈ 20.4 µg/mL)
